# Measured values reported in PubChem BioAssay AID330 (DTP/NCI, 2004).
# Where “and” joins values, the source holds several entries; their conditions need not be identical. Equal entries are not always repeated. Toxic doses and inconclusive results are not listed.
# Test system: P388 leukemia ip, CD2F1 mice, survival T/C
# Experiment: NCI In Vivo Anticancer Drug Screen. Data for tumor model P388 Leukemia (intraperitoneal) in CD2F1 (CDF1) mice
# Conditions: endpoint: median survival time, higher = longer survival
# Method in brief: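 Mice carrying the transplanted tumor received test compound or vehicle. Survival was recorded in each group, and the value is the treated-group measurement divided by that of the vehicle-treated control group.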
# [1] = dose: 25.0 mg/kg/injection, schedule: Q01DX009 (ip), vehicle: water
# [2] = dose: 50.0 mg/kg/injection, schedule: Q01DX005 (ip), vehicle: Klucel (hydroxypropylcellulose) (HPC)
# [3] = dose: 100.0 mg/kg/injection, schedule: Q01DX005 (ip), vehicle: Klucel (hydroxypropylcellulose) (HPC)
# [4] = dose: 200.0 mg/kg/injection, schedule: Q01DX005 (ip), vehicle: Klucel (hydroxypropylcellulose) (HPC)
# [5] = dose: 50.0 mg/kg/injection, schedule: Q01DX005 (ip), vehicle: saline
# [6] = dose: 100.0 mg/kg/injection, schedule: Q01DX005 (ip), vehicle: saline
# [7] = dose: 100.0 mg/kg/injection, schedule: Q01DX009 (ip), vehicle: saline with Tween-80
smiles,measurement,setting,value
O=C1c2ccccc2C(=O)c2c(O)c(NCCO)cc(O)c21,T/C,"dose: 100.0 mg/kg/injection, schedule: Q04DX002 (ip), vehicle: Klucel (hydroxypropylcellulose) (HPC)",92 % of control
same,T/C,"dose: 200.0 mg/kg/injection, schedule: Q04DX002 (ip), vehicle: Klucel (hydroxypropylcellulose) (HPC)",101 % of control
same,T/C,"dose: 400.0 mg/kg/injection, schedule: Q04DX002 (ip), vehicle: Klucel (hydroxypropylcellulose) (HPC)",93 % of control
COc1cccc2c1C(=O)c1c(O)c3c(c(O)c1C2=O)C[C@@](O)(C(=O)CN1CCN(C)CC1)C[C@@H]3OC1CC(N)C(O)C(C)O1 (some centres undefined),T/C,"dose: 1.3 mg/kg/injection, schedule: Q01DX001 (ip), vehicle: water",108 % of control
same,T/C,"dose: 1.56 mg/kg/injection, schedule: Q01DX009 (ip), vehicle: water",115 % of control
same,T/C,"dose: 1.8 mg/kg/injection, schedule: Q01DX001 (ip), vehicle: water",116 % of control
same,T/C,"dose: 2.4 mg/kg/injection, schedule: Q01DX001 (ip), vehicle: water",106 % of control
same,T/C,"dose: 3.12 mg/kg/injection, schedule: Q01DX009 (ip), vehicle: water",123 % of control
same,T/C,"dose: 3.13 mg/kg/injection, schedule: Q01DX009 (ip), vehicle: water",115 % of control
same,T/C,"dose: 3.2 mg/kg/injection, schedule: Q01DX001 (ip), vehicle: water",109 % of control
same,T/C,"dose: 4.2 mg/kg/injection, schedule: Q01DX001 (ip), vehicle: water",113 % of control
same,T/C,"dose: 5.6 mg/kg/injection, schedule: Q01DX001 (ip), vehicle: water",115 % of control
same,T/C,"dose: 6.25 mg/kg/injection, schedule: Q01DX009 (ip), vehicle: water",115 % of control
same,T/C,"dose: 7.5 mg/kg/injection, schedule: Q01DX001 (ip), vehicle: water",117 % of control
same,T/C,"dose: 10.0 mg/kg/injection, schedule: Q01DX001 (ip), vehicle: water",115 % of control
same,T/C,"dose: 12.5 mg/kg/injection, schedule: Q01DX001 (ip), vehicle: water",117 % of control
same,T/C,"dose: 18.8 mg/kg/injection, schedule: Q01DX009 (ip), vehicle: water",161 % of control
same,T/C,"dose: 25.0 mg/kg/injection, schedule: Q01DX001 (ip), vehicle: water",119 % of control
same,T/C,[1],115 % of control and 117 % of control
Cc1ccnc(NS(=O)(=O)c2ccc(NC(=O)Nc3cccc(Cl)c3)cc2)n1,T/C,[2],86 % of control
same,T/C,[3],87 % of control
same,T/C,[4],89 % of control
O=C1OC(CCc2ccccc2O)c2ccccc21 (centres undefined),T/C,"dose: 50.0 mg/kg/injection, schedule: Q01DX005 (ip), vehicle: saline with Tween-80",89 % of control
same,T/C,"dose: 100.0 mg/kg/injection, schedule: Q01DX005 (ip), vehicle: saline with Tween-80",99 % of control
same,T/C,"dose: 200.0 mg/kg/injection, schedule: Q01DX005 (ip), vehicle: saline with Tween-80",93 % of control
CS(=O)CSCC(N)C(=O)O (centres undefined),T/C,[1],91 % of control
same,T/C,"dose: 50.0 mg/kg/injection, schedule: Q01DX009 (ip), vehicle: water",100 % of control
same,T/C,"dose: 100.0 mg/kg/injection, schedule: Q01DX009 (ip), vehicle: water",93 % of control
same,T/C,"dose: 200.0 mg/kg/injection, schedule: Q01DX009 (ip), vehicle: water",99 % of control
same,T/C,"dose: 400.0 mg/kg/injection, schedule: Q01DX009 (ip), vehicle: water",96 % of control
CC1CC[N+](C)([B-](F)(F)F)CC1 (centres undefined),T/C,[5],100 % of control
same,T/C,[6],106 % of control
C[N+](C)(Cn1ncc2ccc([N+](=O)[O-])cc21)Cn1ncc2ccc([N+](=O)[O-])cc21,T/C,"dose: 12.5 mg/kg/injection, schedule: Q04DX003 (ip), vehicle: saline with Tween-80",100 % of control
same,T/C,"dose: 25.0 mg/kg/injection, schedule: Q04DX003 (ip), vehicle: saline with Tween-80",97 % of control
same,T/C,"dose: 50.0 mg/kg/injection, schedule: Q04DX003 (ip), vehicle: saline with Tween-80",92 % of control
same,T/C,"dose: 100.0 mg/kg/injection, schedule: Q04DX003 (ip), vehicle: saline with Tween-80",96 % of control
CCCCOc1cc(C(=O)NCCN(C)C)c2ccccc2n1,T/C,"dose: 7.5 mg/kg/injection, schedule: Q01DX005 (ip), vehicle: saline with Tween-80",104 % of control
same,T/C,"dose: 15.0 mg/kg/injection, schedule: Q01DX005 (ip), vehicle: saline with Tween-80",106 % of control
same,T/C,"dose: 30.0 mg/kg/injection, schedule: Q01DX005 (ip), vehicle: saline with Tween-80",106 % of control
COc1ccc2c(c1)[C@@]13CCCC[C@H]1[C@H](N(C)CC3)C21CC1,T/C,"dose: 100.0 mg/kg/injection, schedule: Q01DX001 (ip), vehicle: Klucel (hydroxypropylcellulose) (HPC)",97 % of control
same,T/C,"dose: 200.0 mg/kg/injection, schedule: Q01DX001 (ip), vehicle: Klucel (hydroxypropylcellulose) (HPC)",102 % of control
COc1cccc2c1C(=O)c1c(O)c3c(c(O)c1C2=O)[C@@H](OC)[C@@](O)(C(=O)CO)C[C@@H]3OC1CC(N)C(O)C(C)O1 (some centres undefined),T/C,"dose: 3.13 mg/kg/injection, schedule: Q04DX003 (ip), vehicle: water",108 % of control and 123 % of control
same,T/C,"dose: 12.5 mg/kg/injection, schedule: Q04DX003 (ip), vehicle: water",115 % of control
same,T/C,"dose: 25.0 mg/kg/injection, schedule: Q04DX003 (ip), vehicle: water",106 % of control and 115 % of control
same,T/C,"dose: 50.0 mg/kg/injection, schedule: Q04DX003 (ip), vehicle: water",104 % of control
COc1ccccc1-n1cccc(C#N)c1=S,T/C,"dose: 60.0 mg/kg/injection, schedule: Q01DX005 (ip), vehicle: Klucel (hydroxypropylcellulose) (HPC)",98 % of control
same,T/C,"dose: 120.0 mg/kg/injection, schedule: Q01DX005 (ip), vehicle: Klucel (hydroxypropylcellulose) (HPC)",91 % of control
same,T/C,"dose: 240.0 mg/kg/injection, schedule: Q01DX005 (ip), vehicle: Klucel (hydroxypropylcellulose) (HPC)",89 % of control
C=C1C(=O)OC2C1CCC(=C)C1CC(O)C(=C)C12 (centres undefined),T/C,"dose: 9.37 mg/kg/injection, schedule: Q01DX009 (ip), vehicle: suspension in saline",103 % of control
same,T/C,"dose: 18.75 mg/kg/injection, schedule: Q01DX009 (ip), vehicle: suspension in saline",119 % of control and 123 % of control
same,T/C,"dose: 37.5 mg/kg/injection, schedule: Q01DX009 (ip), vehicle: suspension in saline",121 % of control
CC(CN1C(=O)CCC1=O)N1C(=O)CCC1=O (centres undefined),T/C,[5],100 % of control
same,T/C,[6],103 % of control
same,T/C,"dose: 200.0 mg/kg/injection, schedule: Q01DX005 (ip), vehicle: saline",100 % of control
O=C(O)C(=O)O.O=C([O-])C(=O)O.O=C([O-])C(=O)O.O=C([O-])C(=O)[O-].[K+].[U],T/C,"dose: 1.56 mg/kg/injection, schedule: Q01DX009 (ip), vehicle: saline",100 % of control
same,T/C,"dose: 3.13 mg/kg/injection, schedule: Q01DX009 (ip), vehicle: saline",100 % of control
c1ccc(P23(Oc4ccccc4S2)Oc2ccccc2S3)cc1,T/C,"dose: 100.0 mg/kg/injection, schedule: Q04DX003 (ip), vehicle: Klucel (hydroxypropylcellulose) (HPC)",93 % of control
same,T/C,"dose: 200.0 mg/kg/injection, schedule: Q04DX003 (ip), vehicle: Klucel (hydroxypropylcellulose) (HPC)",90 % of control
same,T/C,"dose: 400.0 mg/kg/injection, schedule: Q04DX003 (ip), vehicle: Klucel (hydroxypropylcellulose) (HPC)",91 % of control
C[C@]12C=CC(=O)C=C1CC[C@@H]1[C@@H]2[C@@H](O)C[C@@]2(C)[C@H]1CC[C@]2(O)C(=O)COC(=O)CCC(=O)O,T/C,"dose: 66.0 mg/kg/injection, schedule: Q01DX009 (ip), vehicle: saline with Tween-80",109 % of control
same,T/C,[7],109 % of control
same,T/C,"dose: 150.0 mg/kg/injection, schedule: Q01DX009 (ip), vehicle: saline with Tween-80",109 % of control
c1ccc(N=NC2=NN(c3ccccc3)CCS2)cc1,T/C,"dose: 25.0 mg/kg/injection, schedule: Q01DX009 (ip), vehicle: saline with Tween-80",102 % of control and 107 % of control
same,T/C,"dose: 50.0 mg/kg/injection, schedule: Q01DX009 (ip), vehicle: saline with Tween-80",102 % of control and 116 % of control
same,T/C,[7],101 % of control and 107 % of control
same,T/C,"dose: 200.0 mg/kg/injection, schedule: Q01DX009 (ip), vehicle: saline with Tween-80",100 % of control and 110 % of control
CCOC(=O)/C=C/C(=O)NNS(=O)(=O)CC(N)C(=O)O (centres undefined),T/C,"dose: 100.0 mg/kg/injection, schedule: Q04DX003 (ip), vehicle: acid diluted with saline",105 % of control
same,T/C,"dose: 200.0 mg/kg/injection, schedule: Q04DX003 (ip), vehicle: acid diluted with saline",109 % of control
COc1cc2c(cc1OC)C1C(=O)c3c(O)cc4c(c3OC1CO2)C=CC(C)(C)O4 (centres undefined),T/C,"dose: 12.5 mg/kg/injection, schedule: Q01DX005 (ip), vehicle: Klucel (hydroxypropylcellulose) (HPC)",98 % of control
same,T/C,"dose: 25.0 mg/kg/injection, schedule: Q01DX005 (ip), vehicle: Klucel (hydroxypropylcellulose) (HPC)",100 % of control
same,T/C,[2],107 % of control
same,T/C,[3],107 % of control
same,T/C,[4],111 % of control
same,T/C,"dose: 400.0 mg/kg/injection, schedule: Q01DX005 (ip), vehicle: Klucel (hydroxypropylcellulose) (HPC)",111 % of control
